Tested on: clotting of a test sample, such as whole blood
Assay: low tissue factor clotting assay with a reagent of diluted tissue factor, CaCl2 and polycation heparin inhibitor (polybrene)
Assay type: biochemical
Details: for relationship between TTC and concentration in the sample: range shown between 0 and 500 ng/mL, TTC in seconds; for relationship between TTC and concentration in the sample / concentration in the test sample at a measured clotting time of 400 seconds: FIG. 2 / FIG. 3; for concentration in the test sample at a measured clotting time of 400 seconds: read from plot of TTC versus concentration; for plot of TTC versus concentration with 1 IU UFH or 0 IU UFH in the test sample: test sample with 1 IU unfractionated heparin or no heparin, region 400 / 500 of FIG. 4 / FIG. 5
Text: The clotting assay uses a reagent to initiate the clotting of a test sample, such as whole blood or a sample derived from whole blood (e.g., plasma). A low tissue factor assay is an example of a clotting assay. […] The low tissue factor assay monitors the clotting of a mixture of the test sample and the reagent and determines clotting parameters based on that clotting. The TTC parameters can be different on different clinical analyzer systems and for different low tissue factor assays. For example, TTC parameter(s) for low tissue factor assays performed using the ROTEM® sigma and the RQTEM® delta systems by Werfen® include clotting time (CT) (where CT is the latency time from adding reagent to sample until the clot starts to form); TTC parameter(s) for low tissue factor assays performed using the TEG® 6s system by Haemonetics® include reaction time (R) and clotting time (CT); and TTC parameter(s) for low tissue factor assays performed using the Quanta® system by the Hemoscnics® system include dot time (CT). An example of the reagent that may be used in the low tissue factor assay (referred to below as “the assay”) to initiate clotting of the test sample includes the following constituents: a diluted tissue factor (“the tissue factor”), calcium chloride (CaCl2), and a heparin inhibitor. The tissue factor activates the extrinsic pathway; the heparin inhibitor reduces or eliminates the sensitivity of the assay to heparin or at least certain concentrations of heparin in the test sample; and CaCl2 recalcifies the sample as required for blood clotting to occur. An example of a type of heparin inhibitor that may be used in the reagent is polycation. An example of a polycation that may be used in the reagent includes, but is not limited to, polybrene. […] In this example, process 100 includes receiving (100a) a test sample having an unknown anti-Xa DOAC at an unknown concentration. The test sample may be received in a diagnostic testing/clinical analyzer system or a manual testing system. The test sample may be any of the types of test samples described herein. The system performs a low tissue factor assay on the test sample. This includes causing the test sample to contact a reagent such as the example reagents described herein. The test sample mixes (100b) with the reagent. The mixing may be performed automatically or manually by physically moving the test sample and the reagent using a mixing element mechanism, e.g., agitation, flow, or the like. The resulting liquid, which is a mixture of the sample and the reagent, begins to clot. The clotting parameters(s), such as TTC, CFT, and/or amplitudes, of clots formed from the liquid may be measured (100c) by the diagnostic testing/clinical analyzer system or manually. The plots of FIGS. 4 to 6, which are described below, are associated with various experiments using the low tissue factor assay and the example reagents described herein containing the tissue factor, CaCl2, and a heparin inhibitor, such as polybrene or other polycation.

Compound: O=C(NC[C@H]1CN(c2ccc(N3CCOCC3=O)cc2)C(=O)O1)c1ccc(Cl)s1 [rivaroxaban]
- relationship between TTC and concentration in the sample: linear
- concentration in the test sample at a measured clotting time of 400 seconds: about 50 ng/mL
- plot of TTC versus concentration with 1 IU UFH or 0 IU UFH in the test sample: substantially linear

Compound: COc1ccc(-n2nc(C(N)=O)c3c2C(=O)N(c2ccc(N4CCCCC4=O)cc2)CC3)cc1 [apixaban]
- relationship between TTC and concentration in the sample: linear
- concentration in the test sample at a measured clotting time of 400 seconds: about 160 ng/mL
- plot of TTC versus concentration with 1 IU UFH or 0 IU UFH in the test sample: substantially linear
